Measurements taken from patent US20150246141A1, “DIAGNOSTIC AGENTS WITH ENHANCED SENSITIVITY/SPECIFICITY” (BEN-GURION UNIVERSITY OF THE NEGEV RESEARCH AND DEVELOPMENT …, priority 2012, published 2015).

Experiments:
LS174T tumors = test: Intraluminal (intracolonic) administration to mice bearing rectal LS174T tumors, NIR imaging of excised colon; format: in vivo, female athymic nude mice
Procedure: […] Then, the mice were sacrificed and the colons were removed. Each colon was spread on a clear film, and imaging was performed using the Odyssey® Infrared Imaging System (Li-Cor Biosciences, Lincoln, Nebr., USA.), with excitation wavelength of 780 nm and emission wavelength of 800 nm Results:

HT29 tumors = test: Intraluminal administration to mouse HT-29 tumor models, NIR imaging; format: in vivo, female athymic nude mice
Procedure: 20 min later the colon was washed extensively with PBS and then were allowed to recover for 3 h. Then, the mice were sacrificed and the colons were removed. Each colon was spread on a clear film, and imaging was performed using the Odyssey® Infrared Imaging System (Li-Cor Biosciences, Lincoln, Nebr., USA.), with excitation wavelength of 780 nm and emission wavelength of 800 nm Results:
FIGS. 4C and 4D provide results of similarly treated animals, 2 hours post-administration.

[1] = tested on: LS-174T human colorectal adenocarcinoma; test: Murine orthotopic colorectal tumor model LS-174T, intraluminal instillation, imaging of excised colon and organs; format: in vivo, female athymic nude mice; settings: polymer applied intraluminally
Procedure: The murine orthotopic colorectal tumor model LS-174T human colorectal adenocarcinoma cells (3×10^7 cells) were injected (600 μL) into the descending colonic wall of 13 anesthetized, female athymic nude mice, after an over night fast. […] Histopathological examination was performed on paraffin fixed colonic tissue specimens, after an H&E stain and verified that the carcinoma infiltrated within the mucosa, submucosa, and muscular layer
The mice were sacrificed 3 hrs post treatment, their colons exteriorized, separated, cut open, spread on a transparent film with the mucosal aspects upwards, and imaged by the Odyssey® Infrared Imaging System (Li-Cor Biosciences, Lincoln, Nebr., USA.) with excitation wavelength of 780 nm and emission wavelength of 800 nm.

[2] = tested on: cancerous colorectal tissue; test: In situ labeling of surgically excised human colorectal cancer tissue specimens; settings: PBS, 0.2 mg/ml; 20 minutes incubation, washed three times
Procedure: Polymer solution was dropped onto fresh surgical tissue specimens that were received 15 minutes after surgical excision. After 20 minutes of incubation with the polymeric probe, tissues were washed three times with a large volume of PBS. Tissues were then imaged immediately using the Odyssey® Infrared Imaging System (Li-Cor Biosciences, Lincoln, Nebr., USA.) with excitation wavelength of 780 nm and emission wavelength of 800 nm.

[3] = immediately post administration of 0.1 mg/ml (200 μg)

For “HPMA copolymer bearing IR783-S-Ph-COOH [P-(AP-IR783)]”, the “background staining in control mice without tumors” value (LS174T tumors; 40 μg per mouse (0.2 mg/ml), images taken at 4 hours following washing) was “very little background staining”, the “staining in samples taken from mice having tumors” value (LS174T tumors; 40 μg per mouse (0.2 mg/ml), tumors verified by pathologic evaluation) was “clear staining was evident” and the tumor associated-vasculature staining (LS174T tumors; intraluminal application) was “staining was evident”. The “accumulation in cancerous tissue” value (LS174T tumors; polymer applied intraluminally, LS174T tumor model) was “Selective accumulation”, the “staining of region 4 (no tumors macroscopically; tumors in the submucosa)” value (HT29 tumors; [3]) was “stained intensely” and the “staining of surface exposed regions (boxes 2, 3)” value (HT29 tumors; [3]) was “stained intensely”. For the same substance, the “accumulation in cancerous tissue” value (HT29 tumors; polymer applied intraluminally, HT-29 tumor model) was “Selective accumulation”, the “accumulation in cancerous tissue” value [1] was “Selective accumulation” and the “binding to near healthy tissue” value [2] was “very low binding”. For the same substance, the “staining at cancerous region in the tissue (polyp and tumor)” value [2] was “markedly intense staining”.
